# Experimental data: the supplement of paper PMC13207355
# What was measured:
# Settings in all cases: exposure time: 72 h
# E31 [1] = patient-derived glioblastoma stem cells of proneural subtype; test: phenotypic distance (Euclidean, principal components) from DMSO controls (arbitrary units); higher = stronger morphological change
# FT3469 [2] = normal neural stem cell line; test: as above
# E28 [3] = patient-derived glioblastoma stem cells of classical subtype; test: as above
# E34 [4] = patient-derived glioblastoma stem cells of proneural subtype; test: as above
# E57 [5] = patient-derived glioblastoma stem cells of mesenchymal subtype; test: as above
# E13 [6] = patient-derived glioblastoma stem cells of classical subtype; test: as above
# E21 [7] = patient-derived glioblastoma stem cells of mesenchymal subtype; test: as above
# E31 [8] = test: surviving fraction (nuclei count normalised to DMSO); higher = more cells surviving (less toxic)
# FT3469 [9] = test: as above
# E28 [10] = test: as above
# E34 [11] = test: as above
# E57 [12] = test: as above
# E13 [13] = test: as above
# E21 [14] = test: as above
# 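Throughout, for phenotypic distance (Euclidean, principal components) from DMSO controls: cell Painting imaging in 384-well plates, CellProfiler features reduced to at least 20 principal components, Euclidean distance versus same-plate DMSO vehicle wells (0.1% v/v), median over six images per well.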
# 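Throughout, for surviving fraction (nuclei count normalised to DMSO): nuclei counted by high-content imaging of Hoechst-stained cells in laminin-coated 384-well plates, relative to 0.1% DMSO vehicle wells, with staurosporine as cell-death control.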
smiles,measurement,setting,value
Nc1ccc(-c2ccc3ncc4ccc(=O)n(-c5cccc(C(F)(F)F)c5)c4c3c2)cn1 [Torin2],phenotypic distance,E31 [1]; 4.1 nM,1.91
same,phenotypic distance,E31 [1]; 12.3 nM,2.08
same,phenotypic distance,E31 [1]; 37 nM,3.12
same,phenotypic distance,E31 [1]; 111.1 nM,4.26
same,phenotypic distance,E31 [1]; 333.3 nM,5.33
same,phenotypic distance,E31 [1]; 1000 nM,5.33
same,phenotypic distance,E31 [1]; 3000 nM,6.15
same,phenotypic distance,FT3469 [2]; 4.1 nM,1.78
same,phenotypic distance,FT3469 [2]; 12.3 nM,2
same,phenotypic distance,FT3469 [2]; 37 nM,2.85
same,phenotypic distance,FT3469 [2]; 111.1 nM,2.71
same,phenotypic distance,FT3469 [2]; 333.3 nM,3.04
same,phenotypic distance,FT3469 [2]; 1000 nM,2.81
same,phenotypic distance,FT3469 [2]; 3000 nM,3.65
same,phenotypic distance,E28 [3]; 4.1 nM,1.23
same,phenotypic distance,E28 [3]; 12.3 nM,2.35
same,phenotypic distance,E28 [3]; 37 nM,2.78
same,phenotypic distance,E28 [3]; 111.1 nM,3.06
same,phenotypic distance,E28 [3]; 333.3 nM,2.87
same,phenotypic distance,E28 [3]; 1000 nM,3.67
same,phenotypic distance,E28 [3]; 3000 nM,3.52
same,phenotypic distance,E34 [4]; 4.1 nM,1.56
same,phenotypic distance,E34 [4]; 12.3 nM,2.42
same,phenotypic distance,E34 [4]; 37 nM,2.76
same,phenotypic distance,E34 [4]; 111.1 nM,3.31
same,phenotypic distance,E34 [4]; 333.3 nM,3.09
same,phenotypic distance,E34 [4]; 1000 nM,2.85
same,phenotypic distance,E34 [4]; 3000 nM,3.68
same,phenotypic distance,E57 [5]; 4.1 nM,1.19
same,phenotypic distance,E57 [5]; 12.3 nM,1.65
same,phenotypic distance,E57 [5]; 37 nM,2.17
same,phenotypic distance,E57 [5]; 111.1 nM,3.47
same,phenotypic distance,E57 [5]; 333.3 nM,4.27
same,phenotypic distance,E57 [5]; 1000 nM,5.35
same,phenotypic distance,E57 [5]; 3000 nM,8.06
same,phenotypic distance,E13 [6]; 4.1 nM,1.33
same,phenotypic distance,E13 [6]; 12.3 nM,2.1
same,phenotypic distance,E13 [6]; 37 nM,2.69
same,phenotypic distance,E13 [6]; 111.1 nM,3.25
same,phenotypic distance,E13 [6]; 333.3 nM,4.2
same,phenotypic distance,E13 [6]; 1000 nM,4.27
same,phenotypic distance,E13 [6]; 3000 nM,4.72
same,phenotypic distance,E21 [7]; 4.1 nM,1.71
same,phenotypic distance,E21 [7]; 12.3 nM,2.07
same,phenotypic distance,E21 [7]; 37 nM,2.44
same,phenotypic distance,E21 [7]; 111.1 nM,3.36
same,phenotypic distance,E21 [7]; 333.3 nM,6.2
same,phenotypic distance,E21 [7]; 1000 nM,4.67
same,phenotypic distance,E21 [7]; 3000 nM,5.09
same,surviving fraction,E31 [8]; 4.1 nM,0.743
same,surviving fraction,E31 [8]; 12.3 nM,0.669
same,surviving fraction,E31 [8]; 37 nM,0.612
same,surviving fraction,E31 [8]; 111.1 nM,0.386
same,surviving fraction,E31 [8]; 333.3 nM,0.26
same,surviving fraction,E31 [8]; 1000 nM,0.234
same,surviving fraction,E31 [8]; 3000 nM,0.102
same,surviving fraction,FT3469 [9]; 4.1 nM,0.978
same,surviving fraction,FT3469 [9]; 12.3 nM,0.925
same,surviving fraction,FT3469 [9]; 37 nM,0.73
same,surviving fraction,FT3469 [9]; 111.1 nM,0.685
same,surviving fraction,FT3469 [9]; 333.3 nM,0.769
same,surviving fraction,FT3469 [9]; 1000 nM,0.685
same,surviving fraction,FT3469 [9]; 3000 nM,0.527
same,surviving fraction,E28 [10]; 4.1 nM,0.829
same,surviving fraction,E28 [10]; 12.3 nM,0.687
same,surviving fraction,E28 [10]; 37 nM,0.705
same,surviving fraction,E28 [10]; 111.1 nM,0.526
same,surviving fraction,E28 [10]; 333.3 nM,0.534
same,surviving fraction,E28 [10]; 1000 nM,0.417
same,surviving fraction,E28 [10]; 3000 nM,0.324
same,surviving fraction,E34 [11]; 4.1 nM,0.986
same,surviving fraction,E34 [11]; 12.3 nM,0.84
same,surviving fraction,E34 [11]; 37 nM,0.809
same,surviving fraction,E34 [11]; 111.1 nM,0.796
same,surviving fraction,E34 [11]; 333.3 nM,0.623
same,surviving fraction,E34 [11]; 1000 nM,0.471
same,surviving fraction,E34 [11]; 3000 nM,0.424
same,surviving fraction,E57 [12]; 4.1 nM,0.892
same,surviving fraction,E57 [12]; 12.3 nM,0.74
same,surviving fraction,E57 [12]; 37 nM,0.659
same,surviving fraction,E57 [12]; 111.1 nM,0.548
same,surviving fraction,E57 [12]; 333.3 nM,0.424
same,surviving fraction,E57 [12]; 1000 nM,0.302
same,surviving fraction,E57 [12]; 3000 nM,0.148
same,surviving fraction,E13 [13]; 4.1 nM,0.816
same,surviving fraction,E13 [13]; 12.3 nM,0.728
same,surviving fraction,E13 [13]; 37 nM,0.628
same,surviving fraction,E13 [13]; 111.1 nM,0.537
same,surviving fraction,E13 [13]; 333.3 nM,0.467
same,surviving fraction,E13 [13]; 1000 nM,0.434
same,surviving fraction,E13 [13]; 3000 nM,0.387
same,surviving fraction,E21 [14]; 4.1 nM,0.939
same,surviving fraction,E21 [14]; 12.3 nM,0.836
same,surviving fraction,E21 [14]; 37 nM,0.924
same,surviving fraction,E21 [14]; 111.1 nM,0.595
same,surviving fraction,E21 [14]; 333.3 nM,0.326
same,surviving fraction,E21 [14]; 1000 nM,0.31
same,surviving fraction,E21 [14]; 3000 nM,0.252
CC(C)C[C@@H](C(=O)N[C@H](C(=O)OC1CCCC1)c1ccccc1)[C@H](O)C(=O)NO [Tosedostat],phenotypic distance,E31 [1]; 4.1 nM,1.18
same,phenotypic distance,E31 [1]; 12.3 nM,0.639
same,phenotypic distance,E31 [1]; 37 nM,1.52
same,phenotypic distance,E31 [1]; 111.1 nM,0.949
same,phenotypic distance,E31 [1]; 333.3 nM,1.01
same,phenotypic distance,E31 [1]; 1000 nM,1.28
same,phenotypic distance,E31 [1]; 3000 nM,1.86
same,phenotypic distance,FT3469 [2]; 4.1 nM,1.7
same,phenotypic distance,FT3469 [2]; 12.3 nM,1.82
same,phenotypic distance,FT3469 [2]; 37 nM,1.97
same,phenotypic distance,FT3469 [2]; 111.1 nM,1.7
same,phenotypic distance,FT3469 [2]; 333.3 nM,1.92
same,phenotypic distance,FT3469 [2]; 1000 nM,2.23
same,phenotypic distance,FT3469 [2]; 3000 nM,2.64
same,phenotypic distance,E28 [3]; 4.1 nM,0.786
same,phenotypic distance,E28 [3]; 12.3 nM,1.24
same,phenotypic distance,E28 [3]; 37 nM,1.27
same,phenotypic distance,E28 [3]; 111.1 nM,1.73
same,phenotypic distance,E28 [3]; 333.3 nM,1.68
same,phenotypic distance,E28 [3]; 1000 nM,2.2
same,phenotypic distance,E28 [3]; 3000 nM,2.09
same,phenotypic distance,E34 [4]; 4.1 nM,0.805
same,phenotypic distance,E34 [4]; 12.3 nM,1.29
same,phenotypic distance,E34 [4]; 37 nM,0.677
same,phenotypic distance,E34 [4]; 111.1 nM,1.91
same,phenotypic distance,E34 [4]; 333.3 nM,1.92
same,phenotypic distance,E34 [4]; 1000 nM,1.4
same,phenotypic distance,E34 [4]; 3000 nM,1.6
same,phenotypic distance,E57 [5]; 4.1 nM,1.53
same,phenotypic distance,E57 [5]; 12.3 nM,1.55
same,phenotypic distance,E57 [5]; 37 nM,1.95
same,phenotypic distance,E57 [5]; 111.1 nM,2.24
same,phenotypic distance,E57 [5]; 333.3 nM,2.7
same,phenotypic distance,E57 [5]; 1000 nM,2.08
same,phenotypic distance,E57 [5]; 3000 nM,2.7
same,phenotypic distance,E13 [6]; 4.1 nM,0.738
same,phenotypic distance,E13 [6]; 12.3 nM,0.631
same,phenotypic distance,E13 [6]; 37 nM,1.06
same,phenotypic distance,E13 [6]; 111.1 nM,1.01
same,phenotypic distance,E13 [6]; 333.3 nM,1.39
same,phenotypic distance,E13 [6]; 1000 nM,1.41
same,phenotypic distance,E13 [6]; 3000 nM,1.3
same,phenotypic distance,E21 [7]; 4.1 nM,0.795
same,phenotypic distance,E21 [7]; 12.3 nM,0.918
same,phenotypic distance,E21 [7]; 37 nM,0.947
same,phenotypic distance,E21 [7]; 111.1 nM,1.11
same,phenotypic distance,E21 [7]; 333.3 nM,1.62
same,phenotypic distance,E21 [7]; 1000 nM,1.49
same,phenotypic distance,E21 [7]; 3000 nM,2.1
same,surviving fraction,E31 [8]; 4.1 nM,0.788
same,surviving fraction,E31 [8]; 12.3 nM,0.935
same,surviving fraction,E31 [8]; 37 nM,0.7
same,surviving fraction,E31 [8]; 111.1 nM,0.861
same,surviving fraction,E31 [8]; 333.3 nM,0.836
same,surviving fraction,E31 [8]; 1000 nM,0.796
same,surviving fraction,E31 [8]; 3000 nM,0.683
same,surviving fraction,FT3469 [9]; 4.1 nM,0.843
same,surviving fraction,FT3469 [9]; 12.3 nM,0.843
same,surviving fraction,FT3469 [9]; 37 nM,0.774
same,surviving fraction,FT3469 [9]; 111.1 nM,0.831
same,surviving fraction,FT3469 [9]; 333.3 nM,0.809
same,surviving fraction,FT3469 [9]; 1000 nM,0.759
same,surviving fraction,FT3469 [9]; 3000 nM,0.746
same,surviving fraction,E28 [10]; 4.1 nM,0.904
same,surviving fraction,E28 [10]; 12.3 nM,0.755
same,surviving fraction,E28 [10]; 37 nM,0.781
same,surviving fraction,E28 [10]; 111.1 nM,0.846
same,surviving fraction,E28 [10]; 333.3 nM,0.657
same,surviving fraction,E28 [10]; 1000 nM,0.692
same,surviving fraction,E28 [10]; 3000 nM,0.583
same,surviving fraction,E34 [11]; 4.1 nM,0.968
same,surviving fraction,E34 [11]; 12.3 nM,0.827
same,surviving fraction,E34 [11]; 37 nM,0.787
same,surviving fraction,E34 [11]; 111.1 nM,0.842
same,surviving fraction,E34 [11]; 333.3 nM,0.662
same,surviving fraction,E34 [11]; 1000 nM,0.8
same,surviving fraction,E34 [11]; 3000 nM,0.833
same,surviving fraction,E57 [12]; 4.1 nM,0.806
same,surviving fraction,E57 [12]; 12.3 nM,0.83
same,surviving fraction,E57 [12]; 37 nM,0.744
same,surviving fraction,E57 [12]; 111.1 nM,0.679
same,surviving fraction,E57 [12]; 333.3 nM,0.635
same,surviving fraction,E57 [12]; 1000 nM,0.708
same,surviving fraction,E57 [12]; 3000 nM,0.622
same,surviving fraction,E13 [13]; 4.1 nM,0.889
same,surviving fraction,E13 [13]; 12.3 nM,0.853
same,surviving fraction,E13 [13]; 37 nM,0.863
same,surviving fraction,E13 [13]; 111.1 nM,1.01
same,surviving fraction,E13 [13]; 333.3 nM,0.894
same,surviving fraction,E13 [13]; 1000 nM,0.894
same,surviving fraction,E13 [13]; 3000 nM,0.934
same,surviving fraction,E21 [14]; 4.1 nM,0.858
same,surviving fraction,E21 [14]; 12.3 nM,0.909
same,surviving fraction,E21 [14]; 37 nM,0.793
same,surviving fraction,E21 [14]; 111.1 nM,0.78
same,surviving fraction,E21 [14]; 333.3 nM,0.772
same,surviving fraction,E21 [14]; 1000 nM,0.715
same,surviving fraction,E21 [14]; 3000 nM,0.507
